Assays:
Experiment in all cases: Test C greenhouse herbicide test, pre- and postemergence
Type in all cases: in vivo
[1] = tested on: soybean (Glycine max)
In short: (§1)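 Visual 0–100 injury score (100 = complete control) taken against untreated controls after 13–15 d in greenhouse. Test chemicals, formulated in solvent plus surfactant, applied preemergence to seeds in loam–sand soil or postemergence to 1- to 4-leaf plants (2–18 cm).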

[2] = tested on: waterhemp (common waterhemp, Amaranthus rudis)
In short: as §1

[3] = tested on: oilseed rape (Brassica napus)
In short: as §1

[4] = tested on: nutsedge, yellow (yellow nutsedge, Cyperus esculentus)
In short: as §1

[5] = tested on: foxtail, giant (giant foxtail, Setaria faberii)
In short: as §1

[6] = tested on: pigweed (Amaranthus retroflexus)
In short: as §1

[7] = tested on: corn (Zea mays)
In short: as §1

[8] = tested on: velvetleaf (Abutilon theophrasti)
In short: as §1

[9] = tested on: lambsquarters (Chenopodium album)
In short: as §1

[10] = tested on: johnsongrass (Sorghum halepense)
In short: as §1

[11] = tested on: ryegrass, Italian (Italian ryegrass, Lolium multiflorum)
In short: as §1

[12] = tested on: morningglory (Ipomoea coccinea)
In short: as §1

[13] = tested on: blackgrass (Alopecurus myosuroides)
In short: as §1

[14] = tested on: wheat (winter wheat, Triticum aestivum)
In short: as §1

[15] = tested on: galium (catchweed bedstraw, Galium aparine)
In short: as §1

[16] = tested on: crabgrass, large (large crabgrass, Digitaria sanguinalis)
In short: as §1

[17] = Postemergence, 125 g ai/ha, scale 0 to 100, 0 is no effect, 100 is complete control
[18] = Postemergence, 250 g ai/ha, scale 0 to 100, 0 no effect, 100 complete control, 13 to 15 d
[19] = Preemergence, 31 g ai/ha, scale 0 to 100, 0 is no effect, 100 is complete control
[20] = Preemergence, 62 g ai/ha, scale 0 to 100, 0 is no effect, 100 is complete control
[21] = Preemergence, 125 g ai/ha, scale 0 to 100, 0 is no effect, 100 is complete control
[22] = Preemergence, 250 g ai/ha, scale 0 to 100 (0 no effect, 100 complete control)
[23] = postemergence, 62 g ai/ha, scale 0 to 100, 0 no effect, 100 complete control
[24] = Postemergence, 31 g ai/ha, 0 to 100 scale (0 no effect, 100 complete control)

Cc1cc(C)c2sc(C)c(-c3c(OC(=O)OCCCl)c(C)nn(C)c3=O)c2c1 [Compound 85]
60: Plant response rating, Waterhemp [2, 19]
100: Waterhemp plant response rating [2, 22] | Plant response rating, Foxtail, Giant [5, 21] | Foxtail, Giant plant response rating [5, 22] | Plant response rating, Pigweed [6, 19] | Plant response rating, Pigweed [6, 20] | Plant response rating, Pigweed [6, 21] | Pigweed plant response rating [6, 22] | Plant response rating, Lambsquarters [9, 17] | Plant response rating, Lambsquarters [9, 18] | Lambsquarters plant response rating [9, 22] | Plant response rating, Morningglory [12, 17] | Plant response rating, Morningglory [12, 18] | Plant response rating, Galium [15, 17] | Plant response rating, Galium [15, 18] | Galium plant response rating [15, 23]
10: Plant response rating, Oilseed Rape [3, 17] | Oilseed Rape plant response rating [3, 23] | Plant response rating, Corn [7, 20] | Corn plant response rating [7, 22]
98: Plant response rating, Foxtail, Giant [5, 20] | Lambsquarters plant response rating [9, 23] | Morningglory plant response rating [12, 22] | Morningglory plant response rating [12, 23]
75: Plant response rating, Nutsedge, Yellow [4, 21]
80: Plant response rating, Waterhemp [2, 20] | Nutsedge, Yellow plant response rating [4, 22] | Plant response rating, Velvetleaf [8, 20] | Blackgrass plant response rating [13, 23] | Plant response rating, Crabgrass, Large [16, 19] | Plant response rating, Crabgrass, Large [16, 21]
85: Plant response rating, Waterhemp [2, 17] | Plant response rating, Waterhemp [2, 18] | Plant response rating, Oilseed Rape [3, 20] | Plant response rating, Nutsedge, Yellow [4, 20] | Nutsedge, Yellow plant response rating [4, 23] | Foxtail, Giant plant response rating [5, 23] | Plant response rating, Pigweed [6, 17] | Pigweed plant response rating [6, 23] | Plant response rating, Velvetleaf [8, 17] | Plant response rating, Velvetleaf [8, 21] | Velvetleaf plant response rating [8, 23] | Plant response rating, Lambsquarters [9, 19] | Plant response rating, Ryegrass, Italian [11, 19] | Plant response rating, Ryegrass, Italian [11, 20] | Plant response rating, Morningglory [12, 19] | Plant response rating, Blackgrass [13, 20] | Plant response rating, Crabgrass, Large [16, 20] | Crabgrass, Large plant response rating [16, 22]
50: Plant response rating, Velvetleaf [8, 19] | Plant response rating, Johnsongrass [10, 17] | Plant response rating, Blackgrass [13, 19]
40: Plant response rating, Oilseed Rape [3, 21] | Plant response rating, Johnsongrass [10, 19] | Johnsongrass plant response rating [10, 22] | Plant response rating, Crabgrass, Large [16, 17]
15: Plant response rating, Soybean [1, 18] | Plant response rating, Oilseed Rape [3, 18] | Johnsongrass plant response rating [10, 23]
70: Plant response rating, Nutsedge, Yellow [4, 19] | Blackgrass plant response rating [13, 24]
5: Plant response rating, Oilseed Rape [3, 19] | Plant response rating, Corn [7, 18] | Wheat plant response rating [14, 22]
65: Waterhemp plant response rating [2, 23] | Plant response rating, Johnsongrass [10, 21]
45: Plant response rating, Crabgrass, Large [16, 18]
0: Plant response rating, Soybean [1, 17] | Plant response rating, Soybean [1, 19] | Plant response rating, Soybean [1, 20] | Plant response rating, Soybean [1, 21] | Soybean plant response rating [1, 22] | Soybean plant response rating [1, 23] | Corn plant response rating [7, 24] | Plant response rating, Corn [7, 17] | Plant response rating, Corn [7, 19] | Plant response rating, Corn [7, 21] | Corn plant response rating [7, 23] | Plant response rating, Wheat [14, 17] | Plant response rating, Wheat [14, 18] | Plant response rating, Wheat [14, 19] | Plant response rating, Wheat [14, 20] | Plant response rating, Wheat [14, 21] | Wheat plant response rating [14, 23]
25: Plant response rating, Johnsongrass [10, 18]
90: Plant response rating, Waterhemp [2, 21] | Oilseed Rape plant response rating [3, 22] | Plant response rating, Nutsedge, Yellow [4, 18] | Plant response rating, Foxtail, Giant [5, 17] | Plant response rating, Foxtail, Giant [5, 18] | Plant response rating, Foxtail, Giant [5, 19] | Plant response rating, Pigweed [6, 18] | Velvetleaf plant response rating [8, 22] | Plant response rating, Lambsquarters [9, 20] | Plant response rating, Lambsquarters [9, 21] | Plant response rating, Ryegrass, Italian [11, 17] | Plant response rating, Ryegrass, Italian [11, 21] | Ryegrass, Italian plant response rating [11, 22] | Ryegrass, Italian plant response rating [11, 23] | Plant response rating, Morningglory [12, 20] | Plant response rating, Blackgrass [13, 17] | Plant response rating, Blackgrass [13, 18] | Plant response rating, Blackgrass [13, 21] | Blackgrass plant response rating [13, 22] | Plant response rating, Galium [15, 19] | Plant response rating, Galium [15, 20]
30: Plant response rating, Johnsongrass [10, 20] | Crabgrass, Large plant response rating [16, 23]
95: Plant response rating, Nutsedge, Yellow [4, 17] | Plant response rating, Velvetleaf [8, 18] | Plant response rating, Ryegrass, Italian [11, 18] | Plant response rating, Morningglory [12, 21] | Plant response rating, Galium [15, 21] | Galium plant response rating [15, 22]
